Measurements: BigSolDB 2.1

N#Cc1cccc([N+](=O)[O-])c1
solubility (mole fraction)
Conditions | 278.15 K | 283.15 K | 288.15 K | 293.15 K | 298.15 K | 303.15 K | 308.15 K | 313.15 K | 318.15 K
in acetic acid | – | – | – | 0.0354 | 0.04 | 0.0459 | 0.0525 | 0.0608 | 0.0713
in acetone | 0.0789 | 0.0905 | 0.106 | 0.123 | 0.142 | 0.164 | 0.187 | 0.213 | 0.242
in acetonitrile | 0.0473 | 0.0565 | 0.0682 | 0.0814 | 0.0973 | 0.116 | 0.138 | 0.164 | 0.196
in cyclohexane | – | 0.000365 | 0.000472 | 0.000599 | 0.000768 | 0.00097 | 0.00121 | 0.00153 | 0.00193
in ethanol | 0.00312 | 0.0038 | 0.00473 | 0.00582 | 0.00715 | 0.00873 | 0.0106 | 0.013 | 0.0159
in ethyl acetate | 0.0353 | 0.044 | 0.0565 | 0.0706 | 0.0876 | 0.109 | 0.135 | 0.166 | 0.203
in isobutanol | 0.00162 | 0.00207 | 0.00265 | 0.0033 | 0.00409 | 0.00504 | 0.00624 | 0.00773 | 0.00959
in isopropanol | 0.0017 | 0.00215 | 0.00274 | 0.0035 | 0.00446 | 0.00565 | 0.00711 | 0.00905 | 0.0114
in methanol | 0.0041 | 0.00501 | 0.00622 | 0.0076 | 0.00926 | 0.0112 | 0.0134 | 0.0162 | 0.0195
in n-butanol | 0.00233 | 0.00286 | 0.00349 | 0.00428 | 0.00538 | 0.00683 | 0.00848 | 0.0104 | 0.0129
in n-propanol | 0.0025 | 0.00308 | 0.0038 | 0.00475 | 0.00592 | 0.0073 | 0.00897 | 0.0111 | 0.0135
in toluene | 0.0259 | 0.0304 | 0.0374 | 0.0458 | 0.0557 | 0.067 | 0.0813 | 0.0982 | 0.119
